One data set concerns B2M promoter. The data set is described as follows: B2M repression with gRNAs tiled across the B2M promoter, dXR1 vs ELXR #1 (Example 10). The format is cell-based, human. The settings on record: HEK293T, six days after lipofection, unlike the effects seen with dXR1. Here is the method: ELXR #1 containing the ZIM3-KRAB domain, as described in Example 6, and dXR1, as described in Example 1, were assessed in this experiment. Various gRNAs with scaffold 174 containing a B2M-targeting spacer were used in this experiment.
The next day, cells were selected with puromycin for four additional days. […] HEK293T cells transfected with either ELXR #1 or dXR1 with a non-targeting gRNA was included as an experimental control. FIG. 21A is a schematic illustrating the tiling of the various B2M-targeting gRNAs (spacers listed in Table 31) within a ˜1 KB window of the B2M promoter.

The subject of another data set is HBEGF locus. In kind it is cell-based, human. The settings on record: dCasX491-KRAB lentiviral library, spacer 34.28, HEK293T, 2 ng/ml diphtheria toxin 48 hours.

Experimental findings from patent US20240392271A1, “ENGINEERED CASX REPRESSOR SYSTEMS” (Scribe Therapeutics Inc., priority 2021, published 2024) are described below.

For “spacer 7.165: B2M-targeting, ELXR-specific spacer, UCCCUAUGUCCUUGCUGUUU, SEQ ID NO: 59667 (listed as RNA, chemistry not fully specified)”, the “B2M repression (HLA-negative cells) mediated by ELXR #1 with the spacer” value with B2M promoter is listed as “meaningful B2M repression”. Regarding “Zim3: ZIM3 KRAB domain, SEQ ID NO: 337 [reference compound]”, the “log2 (fold change) in abundance of the KRAB domain before and after selection” value with HBEGF locus worked out at 1.7787.
